Laboratory results published in patent US9637485B2, “6,7-dihydrobenzo[a]quinolizin-2-one derivatives for the treatment and prophylaxis of hepatitis B virus infection” (Hoffmann-La Roche Inc., priority 2014, dated 2017).
Where two headings read alike, the source gives them in different places.

Tested on: HBsAg
Assay: HBsAg assay (CLIA of secreted HBsAg in HepG2.2.15 culture supernatant)
Format: cell-based, HBV
Protocol: HepG2.2.15 cells (Acs et al. Proc Natl Acad Sci USA, 84, (1987), 4641-4), a constitutively HBV-expressing cell line were cultured in DMEM+Glutamax-I medium (Invitrogen, Carlsbad, Calif., USA, Catalog number: 11320082), supplemented with 10% fetal bovine serum (Invitrogen, Catalog number: 10099141) and G418 (Invitrogen, Catalog number: 10131027) at a final concentration of 200 mg/L and maintained in 5% CO2 at 37° C.
HepG2.2.15 cells were seeded in duplicate into white, 96-well plates at 1.5×10^4 cells/well. The cells were treated with a three-fold serial dilution series of the compounds in DMSO. The final DMSO concentration in all wells was 1% and DMSO was used as no drug control.
The HBsAg chemiluminescence immunoassay (CLIA) kit (Autobio Diagnostics Co., Zhengzhou, China, Catalog number: CL0310-2) was used to measure the levels of secreted HBV antigens semi-quantitatively. For the detection 50 μL/well culture supernatant was used and HBsAg was quantified using HBsAg chemiluminescence immunoassay (CLIA) kit (Autobio Diagnostics Co., Zhengzhou, China, Catalog number: CL0310-2), 50 μl of the supernatant was transferred to the CLIA assay plate and 50 μL of enzyme conjugate reagent was added into each well. The plates were sealed and gently agitated for 1 hour at room temperature. The supernatant-enzyme-mixture was discarded and wells were washed 6 times with 300 μL of PBS. The residual liquid was removed by plating the CLIA plate right side down on absorbent tissue paper. 25 μL of substrates A and B were added to each well. Luminance was measured using a luminometer (Mithras LB 940 Multimode Microplate Reader) after 10 minutes incubation. Dose-response curves were generated and the IC50 value was extrapolated by using the E-WorkBook Suite (ID Business Solutions Ltd., Guildford, UK). The IC50 was defined as the compound concentration (or conditioned media log dilution) at which HBsAg secretion was reduced by 50% compared to the no drug control.

[1] = Hepatitis B virus, HepG2.2.15, read-out: IC50 (HBsAg secretion reduced by 50% compared to the no drug control), HepG2.2.15 cells, culture supernatant, HBsAg CLIA
[2] = read-out: IC50 (HBsAg secretion reduced by 50% compared to the no drug control), HepG2.2.15 cells, culture supernatant, HBsAg CLIA

Structure (SMILES) | IC50 [1] [nM] | IC50 [2] [nM]
COCCCOc1cc2c(cc1OC)-c1cc(=O)c(C(=O)O)cn1C(C(C)(C)CO)C2 (racemic) [Example 24, 6-(2-Hydroxy-1,1-dimethyl-ethyl)-10-methoxy-9-(3-methoxypropoxy)-2-oxo-6,7-dihydrobenzo[a]quinolizine-3-carboxylic acid] | 5 | –
COCCCOc1cc2c(cc1OC)-c1cc(=O)c(C(=O)O)cn1C(C(C)(C)COC)C2 (racemic) [Example 27, 10-Methoxy-6-(2-methoxy-1,1-dimethyl-ethyl)-9-(3-methoxypropoxy)-2-oxo-6,7-dihydrobenzo[a]quinolizine-3-carboxylic acid] | 5 | –
COCCCOc1cc2c(cc1Cl)-c1cc(=O)c(C(=O)O)cn1C(C(C)(C)COC)C2 (racemic) [Example 30, 10-Chloro-6-(2-methoxy-1,1-dimethyl-ethyl)-9-(3-methoxypropoxy)-2-oxo-6,7-dihydrobenzo[a]quinolizine-3-carboxylic acid] | 4 | –
COCCCOc1cc2c(cc1OC)-c1cc(=O)c(C(=O)O)cn1[C@H](C(C)(C)O)C2 (single isomer, unassigned) [Example 21, (+)-6-(1-Hydroxy-1-methyl-ethyl)-10-methoxy-9-(3-methoxypropoxy)-2-oxo-6,7-dihydrobenzo[a]quinolizine-3-carboxylic acid] | – | 41
COCCCOc1cc2c(cc1OC)-c1cc(=O)c(C(=O)O)cn1C(C(C)(C)O)C2 (single isomer, unassigned) [Example 22, (−)-6-(1-hydroxy-1-methyl-ethyl)-10-methoxy-9-(3-methoxypropoxy)-2-oxo-6,7-dihydrobenzo[a]quinolizine-3-carboxylic acid] | – | 4020
COCCCOc1cc2c(cc1OC)-c1cc(=O)c(C(=O)O)cn1C(C(C)(C)CO)C2 (single isomer, unassigned) [Example 26, (−)-6-(2-hydroxy-1,1-dimethyl-ethyl)-10-methoxy-9-(3-methoxypropoxy)-2-oxo-6,7-dihydrobenzo[a]quinolizine-3-carboxylic acid] | – | 84
COCCCOc1cc2c(cc1OC)-c1cc(=O)c(C(=O)O)cn1[C@H](C(C)(C)COC)C2 (single isomer, unassigned) [Example 29, (−)-10-methoxy-6-(2-methoxy-1,1-dimethyl-ethyl)-9-(3-methoxypropoxy)-2-oxo-6,7-dihydrobenzo[a]quinolizine-3-carboxylic acid] | – | 396
COCCCOc1cc2c(cc1Cl)-c1cc(=O)c(C(=O)O)cn1C(C(C)(C)COC)C2 (single isomer, unassigned) [Example 31, (+)-10-Chloro-6-(2-methoxy-1,1-dimethyl-ethyl)-9-(3-methoxypropoxy)-2-oxo-6,7-dihydrobenzo[a]quinolizine-3-carboxylic acid] | – | 3
COCCCOc1cc2c(cc1Cl)-c1cc(=O)c(C(=O)O)cn1C(C(C)(C)COC)C2 (single isomer, unassigned) [Example 32, (−)-10-chloro-6-(2-methoxy-1,1-dimethyl-ethyl)-9-(3-methoxypropoxy)-2-oxo-6,7-dihydrobenzo[a]quinolizine-3-carboxylic acid] | – | 8270
COCC(C)(C)C1Cc2cc(OCc3ccccc3)c(OC)cc2-c2cc(=O)c(C(=O)O)cn21 (centres unmarked) [Example 1, 9-Benzyloxy-10-methoxy-6-(2-methoxy-1,1-dimethyl-ethyl)-2-oxo-6,7-dihydrobenzo[a]quinolizine-3-carboxylic acid] | 7 | –
COCC(C)(C)C1Cc2cc(OC)c(OC)cc2-c2cc(=O)c(C(=O)O)cn21 (centres unmarked) [Example 2, 9,10-Dimethoxy-6-(2-methoxy-1,1-dimethyl-ethyl)-2-oxo-6,7-dihydrobenzo[a]quinolizine-3-carboxylic acid] | 34 | –
COCC(C)(C)C1Cc2cc(OCC(F)(F)F)c(OC)cc2-c2cc(=O)c(C(=O)O)cn21 (centres unmarked) [Example 3, 10-Methoxy-6-(2-methoxy-1,1-dimethyl-ethyl)-2-oxo-9-(2,2,2-trifluoroethoxy)-6,7-dihydrobenzo[a]quinolizine-3-carboxylic acid] | 9 | –
COCC(C)(C)C1Cc2cc(OCCCN3CCOCC3)c(OC)cc2-c2cc(=O)c(C(=O)O)cn21 (centres unmarked) [Example 4, 10-Methoxy-6-(2-methoxy-1,1-dimethyl-ethyl)-9-(3-morpholinopropoxy)-2-oxo-6,7-dihydrobenzo[a]quinolizine-3-carboxylic acid] | 14 | –
COCC(C)(C)C1Cc2cc(OCCCCCCO)c(OC)cc2-c2cc(=O)c(C(=O)O)cn21 (centres unmarked) [Example 5, 9-(6-Hydroxyhexoxy)-10-methoxy-6-(2-methoxy-1,1-dimethyl-ethyl)-2-oxo-6,7-dihydrobenzo[a]quinolizine-3-carboxylic acid] | 6 | –
COCC(C)(C)C1Cc2cc(OCCCO)c(OC)cc2-c2cc(=O)c(C(=O)O)cn21 (centres unmarked) [Example 6, 9-(3-Hydroxypropoxy)-10-methoxy-6-(2-methoxy-1,1-dimethyl-ethyl)-2-oxo-6,7-dihydrobenzo[a]quinolizine-3-carboxylic acid] | 22 | –
COCC(C)(C)C1Cc2cc(OCC(C)(C)CO)c(OC)cc2-c2cc(=O)c(C(=O)O)cn21 (centres unmarked) [Example 7, 9-(3-Hydroxy-2,2-dimethyl-propoxy)-10-methoxy-6-(2-methoxy-1,1-dimethyl-ethyl)-2-oxo-6,7-dihydrobenzo[a]quinolizine-3-carboxylic acid] | 9 | –
CCOCCOc1cc2c(cc1OC)-c1cc(=O)c(C(=O)O)cn1C(C(C)(C)COC)C2 (centres unmarked) [Example 8, 9-(2-Ethoxyethoxy)-10-methoxy-6-(2-methoxy-1,1-dimethyl-ethyl)-2-oxo-6,7-dihydrobenzo[a]quinolizine-3-carboxylic acid] | 12 | –
COCC(C)(C)C1Cc2cc(OCC3CC3)c(OC)cc2-c2cc(=O)c(C(=O)O)cn21 (centres unmarked) [Example 9, 9-(Cyclopropylmethoxy)-10-methoxy-6-(2-methoxy-1,1-dimethyl-ethyl)-2-oxo-6,7-dihydrobenzo[a]quinolizine-3-carboxylic acid] | 4 | –
COCC(C)(C)C1Cc2cc(OCCCSC)c(OC)cc2-c2cc(=O)c(C(=O)O)cn21 (centres unmarked) [Example 10, 10-Methoxy-6-(2-methoxy-1,1-dimethyl-ethyl)-9-(3-methylsulfanylpropoxy)-2-oxo-6,7-dihydrobenzo[a]quinolizine-3-carboxylic acid] | 6 | –
COCC(C)(C)C1Cc2cc(OCCCN3CCCC3)c(OC)cc2-c2cc(=O)c(C(=O)O)cn21 (centres unmarked) [Example 11, 10-Methoxy-6-(2-methoxy-1,1-dimethyl-ethyl)-2-oxo-9-(3-pyrrolidin-1-ylpropoxy)-6,7-dihydrobenzo[a]quinolizine-3-carboxylic acid] | 519 | –
COCC(C)(C)C1Cc2cc(OCCCN3CCCC3=O)c(OC)cc2-c2cc(=O)c(C(=O)O)cn21 (centres unmarked) [Example 12, 10-Methoxy-6-(2-methoxy-1,1-dimethyl-ethyl)-2-oxo-9-[3-(2-oxopyrrolidin-1-yl)propoxy]-6,7-dihydrobenzo[a]quinolizine-3-carboxylic acid] | 190 | –
COCC(C)(C)C1Cc2cc(OCCCN(C)C)c(OC)cc2-c2cc(=O)c(C(=O)O)cn21 (centres unmarked) [Example 13, 9-[3-(Dimethylamino)propoxy]-10-methoxy-6-(2-methoxy-1,1-dimethyl-ethyl)-2-oxo-6,7-dihydrobenzo[a]quinolizine-3-carboxylic acid] | 579 | –
COCC(C)(C)C1Cc2cc(OCCCCCCNC(=O)OC(C)(C)C)c(OC)cc2-c2cc(=O)c(C(=O)O)cn21 (centres unmarked) [Example 14, 9-[6-(tert-Butoxycarbonylamino)hexoxy]-10-methoxy-6-(2-methoxy-1,1-dimethyl-ethyl)-2-oxo-6,7-dihydrobenzo[a]quinolizine-3-carboxylic acid] | 3 | –
COCC(C)(C)C1Cc2cc(OCCCS(C)(=O)=O)c(OC)cc2-c2cc(=O)c(C(=O)O)cn21 (centres unmarked) [Example 15, 10-Methoxy-6-(2-methoxy-1,1-dimethyl-ethyl)-9-(3-methylsulfonylpropoxy)-2-oxo-6,7-dihydrobenzo[a]quinolizine-3-carboxylic acid] | 124 | –
COCC(C)(C)C1Cc2cc(OCCCCCCN)c(OC)cc2-c2cc(=O)c(C(=O)O)cn21 (centres unmarked) [Example 16, 9-(6-Aminohexoxy)-10-methoxy-6-(2-methoxy-1,1-dimethyl-ethyl)-2-oxo-6,7-dihydrobenzo[a]quinolizine-3-carboxylic acid] | 68 | –
COCC(C)(C)C1Cc2cc(OCCC3CCCN3C)c(OC)cc2-c2cc(=O)c(C(=O)O)cn21 (centres unmarked) [Example 17, 10-Methoxy-6-(2-methoxy-1,1-dimethyl-ethyl)-9-[2-(1-methylpyrrolidin-2-yl)ethoxy]-2-oxo-6,7-dihydrobenzo[a]quinolizine-3-carboxylic acid] | 537 | –
